In data set [1] the target is Cannabinoid receptor 1 (Homo sapiens) (UniProt P21554). Description: Displacement of [3H]CP-55940 from human CB1 receptor expressed in CHO cells at 10 uM by liquid scintillation counting. Format: cell-based. (In general: In a radioligand displacement assay an active substance lowers the binding of a labelled ligand.)
The target of data set [2] is T1, Cannabinoid receptor 2 (Homo sapiens, UniProt P34972). Briefly: Displacement of [3H](R)-3-methyl-2-(3-(morpholinomethyl)-3,4-dihydro-2H-benzo[b][1,4]oxazin-5-yl)-1-(naphthalen-1-yl)but-2-en-1-one from human CB2 receptor expressed in CHO cells at 10 uM by liquid scintillation counting. The class given is cell-based.
Data set [3] deals with Cannabinoid receptor 1 (Homo sapiens) (UniProt P21554). Briefly: Agonist activity at human CB1 receptor expressed in CHO cells by [35S]GTPgammaS assay relative to CP-55940. Format: functional, cell-based. Background: GTPγS resists hydrolysis and so accumulates on activated G proteins.
Data set [4] has as its target T1, Cannabinoid receptor 2. Description: Agonist activity at human CB2 receptor expressed in CHO cells by [35S]GTPgammaS assay relative to CP-55940. The class given is functional, cell-based.
The target of data set [5] is T1, Cannabinoid receptor 2. Description: Displacement of [3H](R)-3-methyl-2-(3-(morpholinomethyl)-3,4-dihydro-2H-benzo[b][1,4]oxazin-5-yl)-1-(naphthalen-1-yl)but-2-en-1-one from human CB2 receptor expressed in CHO cells at 1 uM by liquid scintillation counting. Format: cell-based.
Data set [6] concerns the target Cannabinoid receptor 1 (Homo sapiens) (UniProt P21554). Briefly: Displacement of [3H]CP-55940 from human CB1 receptor expressed in CHO cells at 1 uM by liquid scintillation counting. The class given is cell-based.
Data set [7] shares this target. Briefly: Agonist activity at human CB1 receptor expressed in CHO cells at 3 uM by [35S]GTPgammaS assay relative to CP-55940. Format: functional, cell-based.
The target in data set [8] is T1, Cannabinoid receptor 2. Description: Displacement of [3H]CP-55940 from human CB2 receptor expressed in CHOK1 cells by liquid scintillation counting. The class given is cell-based, CHO-K1.
Data set [9] addresses Cannabinoid receptor 1 (Homo sapiens) (UniProt P21554). Briefly: Agonist activity at human CB1 receptor expressed in CHO cells at 10 uM by [35S]GTPgammaS assay. Format: functional, cell-based.
Data set [10] concerns Rattus norvegicus. Briefly: Antiallodynic activity in AM-630-pretreated ip dosed spinal nerve ligated Sprague-Dawley rat model assessed as inhibition of tactile allodynia. Format: functional, organism-based.
Data set [11] has as its target T1, Cannabinoid receptor 2. Briefly: Agonist activity at human CB2 receptor expressed in CHO cells at 3 uM by [35S]GTPgammaS assay relative to CP-55940. The class given is functional, cell-based.
Data set [12] concerns the target T1, Cannabinoid receptor 2. Briefly: Agonist activity at human CB2 receptor expressed in CHO cells by [35S]GTPgammaS assay. The class given is functional, cell-based.
Data set [13] has as its system Rattus norvegicus. Description: Antiallodynic activity in spinal nerve ligated Sprague-Dawley rat model assessed as inhibition of tactile allodynia at 15 mg/kg, ip. The class given is functional, organism-based. The arrangement: dose 15 mg/kg.
Data set [14] has as its system Rattus norvegicus. Briefly: Toxicity in Sprague-Dawley rat assessed as exploratory behavior at 15 mg/kg, ip by open-field chamber test. Format: organism-based. The arrangement: dose 15 mg/kg, route intraperitoneal. To be noted: in vivo.
The subject of data set [15] is Rattus norvegicus. Description: Antiallodynic activity in ip dosed spinal nerve ligated Sprague-Dawley rat model assessed as inhibition of tactile allodynia. The class given is functional.
The subject of data set [16] is Rattus norvegicus. Briefly: Antiallodynic activity in spinal nerve ligated Sprague-Dawley rat model assessed as inhibition of tactile allodynia at 10 mg/kg, ip. The class given is functional, organism-based. The arrangement: dose 10 mg/kg.

Activity calls are given as the source filed them. The calls are words filed in the database; no cut-off is given here.

T1 sequence (P34972 whole entry): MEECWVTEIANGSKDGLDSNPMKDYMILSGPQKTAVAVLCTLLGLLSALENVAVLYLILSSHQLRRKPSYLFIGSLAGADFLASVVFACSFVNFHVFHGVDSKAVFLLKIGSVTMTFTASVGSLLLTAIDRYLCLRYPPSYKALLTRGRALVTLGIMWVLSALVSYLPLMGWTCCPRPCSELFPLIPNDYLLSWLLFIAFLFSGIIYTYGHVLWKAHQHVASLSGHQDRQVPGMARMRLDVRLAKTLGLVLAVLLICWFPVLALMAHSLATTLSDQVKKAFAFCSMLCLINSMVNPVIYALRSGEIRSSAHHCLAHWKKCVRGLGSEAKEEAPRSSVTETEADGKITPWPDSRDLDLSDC
Sequence of Cannabinoid receptor 1 (Homo sapiens) (P21554 whole entry): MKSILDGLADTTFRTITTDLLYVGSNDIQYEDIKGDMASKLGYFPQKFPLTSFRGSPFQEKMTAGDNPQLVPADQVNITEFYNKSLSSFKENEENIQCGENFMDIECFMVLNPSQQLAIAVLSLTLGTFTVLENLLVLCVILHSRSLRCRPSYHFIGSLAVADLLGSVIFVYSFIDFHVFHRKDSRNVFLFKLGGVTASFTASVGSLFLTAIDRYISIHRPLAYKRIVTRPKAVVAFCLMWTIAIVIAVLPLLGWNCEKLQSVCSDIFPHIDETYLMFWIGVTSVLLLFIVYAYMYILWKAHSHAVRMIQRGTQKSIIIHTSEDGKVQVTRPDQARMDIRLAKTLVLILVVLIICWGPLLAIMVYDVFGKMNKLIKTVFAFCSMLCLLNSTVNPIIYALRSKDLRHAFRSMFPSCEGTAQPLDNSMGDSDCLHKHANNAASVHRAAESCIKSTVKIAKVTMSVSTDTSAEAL

Broadly, the Emax is the size of the effect at its maximum, as opposed to the concentration needed. As for `CCCCCCN1C(=O)/C(=N\NC(=O)Cc2ccccc2)c2ccccc21`, the Activity in data set [1] came to 98.2%; in data set [2], 91.5%. The values for the Emax in data set [3] and in data set [4] were 71.9% and 45.8%, respectively.
For `CCCCCCN1C(=O)/C(=N\NC(=O)c2ccccc2)c2cc(C)ccc21`, the Activity came out at 1% in [5] and 22% in data set [6].
Broadly, the Ki is a measure of affinity in units of concentration, obtained from inhibition or displacement. The low end stands for tighter binding, the high end for weaker binding. As to `CCCCN1C(=O)/C(=N\NC(=O)c2ccccc2)c2ccccc21`, the Emax in [7] came to 69%; in [4], 98.9%. Besides, the figures for the Activity in data set [5] and in [6] were 70% and 86%, respectively. Also, in data set [8], the affinity corresponds to a Ki of 19.3 nM.
On to `CCCCCCN1C(=O)/C(=N\NC(=O)c2ccc(Cl)cc2)c2ccccc21`, for which the Activity stood at 32.7% in data set [5] and 46.6% in data set [6].
In the case of `CCCCCCN1C(=O)/C(=N\NC(=O)c2ccccc2)c2cccc(C)c21`, the Activity in data set [5] is 68%; in [6], 67%. The result in data set [3] and in data set [9] was inactive. The molecule further returned an Emax in [4] of 34.2%.
`CN1CCCCC1Cn1cc(C(=O)c2cc([N+](=O)[O-])ccc2I)c2ccccc21` (configuration not stated): the result in data set [10] was inactive.
On to `CCCCCCN1C(=O)/C(=N\NC(=O)C2CCCCC2)c2ccccc21`, for which the Emax in data set [7] worked out at 40.9%; in data set [4], 58%. The Activity in [5] was 61%; in data set [6], 65.8%.
In the case of `O=C(N/N=C1\C(=O)N(CCC2CCCCC2)c2ccccc21)c1ccccc1`, the Activity stood at 96% in data set [1] and 79.8% in data set [2]. Further, in data set [8], the Ki is 58.8 nM. The maximal effect (Emax) stood at 56.8% in data set [3] and 55.6% in data set [4].
For the molecule `O=C(Cc1ccccc1)N/N=C1\C(=O)N(CCC2CCCCC2)c2ccccc21`, the Activity in data set [1] came to 88.8%; in data set [2] it was 47.2%. Moreover, the Emax in [3] worked out at 75%; in data set [4], 21%.
Turning to `CCCCCCN1C(=O)/C(=N\NC(=O)CCCCC)c2ccccc21`, the Activity in data set [5] was determined as 36.6%; in [6], 45.2%.
Consider `O=C(N/N=C1\C(=O)N(CCN2C(=O)c3ccccc3C2=O)c2ccccc21)c1ccccc1`, for which the Activity in data set [5] and in data set [6] was 3% each time.
On to `CCCCCCN1C(=O)/C(=N\NC(=O)c2cccc3ccccc23)c2ccccc21`, for which the Emax in data set [7] came to 12.9%; in data set [4], 30.5%. In addition, the Activity in data set [5] turned out to be 69.8%; in data set [6] it was 83.9%.
With `O=C(N/N=C1\C(=O)N(CC2CCCCC2)c2ccccc21)c1ccccc1`, the figures for the Activity in data set [5] and in [6] were 100% and 99%, respectively. In addition, the Emax was 99% in data set [3] and 65.7% in data set [4].
With `CCCCCCN1C(=O)/C(=N\NC(=O)c2ccccc2)c2cccc(I)c21`, the Activity came out at 66% in data set [5] and 61% in data set [6]. The molecule also gave an Emax in data set [11] of 55%. Moreover, the outcome in data set [3] and in data set [9] was inactive.
As usually defined, the EC50 is the concentration that produces a half-maximal response. A higher EC50 goes with weaker potency. In the case of `O=C(N/N=C1\C(=O)N(Cc2ccccc2)c2ccccc21)c1ccccc1`, the Emax in [7] was determined as 57%; in [3], 57%; in data set [4], 92.7%. Moreover, the Activity stood at 55% in data set [5] and 87% in [6]. In data set [8], this molecule displayed a Ki of 18.5 nM. Also, the midpoint of the response in data set [12], the EC50, lay at 63.7 nM.
On to `CCCCCCN1C(=O)/C(=N\NC(=O)C23CC4CC(CC(C4)C2)C3)c2ccccc21`, for which the Emax is 34.6% in data set [7] and 32.1% in [11]. Further, the Activity in data set [5] was determined as 90.7%; in data set [6] it was 82.6%.
As for `O=C1/C(=N\NS(=O)(=O)c2ccccc2)c2ccccc2N1CCC1CCCCC1`, the Activity in [1] and in data set [2] was less than 40% each time.
For the molecule `CCCCCCN1C(=O)/C(=N\NC(=O)OC(C)(C)C)c2ccccc21`, the figures for the Activity in data set [5] and in data set [6] were 82.3% and 85.1%, respectively. Further, the Ki in data set [8] stood at 13.9 nM. For the same molecule, the Emax in data set [3] came out at 92%; in [4], 43.4%.
For `O=C1/C(=N\NC(=S)Nc2ccccc2)c2ccccc2N1CCC1CCCCC1`, the Activity in data set [1] and in [2] was less than 40% in each case.
In the case of `CCCCCCN1C(=O)/C(=N\NC(=O)c2cc3ccccc3s2)c2ccccc21`, the Activity in data set [5] and in data set [6] was less than 30% throughout.
For `CCCCCN1C(=O)/C(=N\NC(=O)c2ccccc2)c2cc(I)ccc21`, the Activity amounted to 10% in data set [5] and 25% in [6].
On to `CCCCCCN1C(=O)/C(=N\NC(=O)c2ccccc2)c2cc(F)ccc21`, for which the Activity in data set [5] amounted to 46%; in data set [6] it was 57%. Moreover, the result in [3] and in [9] was inactive. The same molecule gave an Emax in [4] of 33.8%.
With `CCCN1C(=O)/C(=N\NC(=O)c2ccccc2)c2ccccc21`, the results for the Activity in data set [5] and in [6] were 32% and 43%, respectively. Moreover, the result in data set [3] and in [9] was inactive. In data set [4], this molecule came in with an Emax of 61.4%.
As for `CCCCCCN1C(=O)/C(=N\NC(=O)Nc2ccccc2)c2ccccc21`, the Activity in data set [1] and in data set [2] was less than 40% throughout.
For `CCCCCCN1C(=O)/C(=N\NC(=O)c2ccccc2)c2cccc(Cl)c21`, the Activity came to 29% in [5] and 60% in data set [6]. The result in data set [3] and in data set [9] was inactive. In [4], this molecule displayed an Emax of 64.8%.
As for `CCCCCCN1C(=O)/C(=N\NC(=O)c2ccccc2)c2cc(OC)ccc21`, the values for the Activity in [5] and in [6] were 17% and 26%, respectively.
Taken in the same sequence, the figures for `CCCCCCN1C(=O)/C(=N\NC(=O)c2ccc3ccccc3c2)c2ccccc21` were less than 30% and less than 30%.
With `CCCCCCN1C(=O)/C(=N\NC(=O)c2ccccc2)c2ccccc21`, the results for the Activity in data set [1], in data set [14] and in data set [2] were 95.5%, “Non-toxic” and 92.8%, respectively. Further, the result in data set [13] and in data set [16] was Active. Moreover, the ED90 in data set [15] worked out at 12 mg/kg. The molecule also came in with a Ki in [8] of 44.3 nM. In addition, the Emax in data set [3] was 59.7%; in data set [4], 68.8%.
For `O=C(N/N=C1\C(=O)N(Cc2ccc(Cl)cc2)c2ccccc21)c1ccccc1`, the Activity was 22% in data set [5] and 94.5% in data set [6]. The Emax in [3] worked out at 72%; in [4], 39.8%.
Consider `CCCCCCN1C(=O)/C(=N\NC(=S)Nc2ccccc2)c2ccccc21`, for which the Activity in [1] amounted to 49%; in data set [2], 37.7%.
Turning to `CCCCCCCCCCCCN1C(=O)/C(=N\NC(=O)c2ccccc2)c2ccccc21`, the Activity in [5] was determined as 24.3%; in data set [6] it was 23.8%.
On to `CCCCCN1C(=O)/C(=N\NC(=O)c2ccccc2)c2ccccc21`, for which the Activity in [5] was 80%; in data set [6], 95%. Besides, the figures for the Emax in [3] and in data set [4] were 95.1% and 68.5%, respectively.
In the case of `CCCCCCN1C(=O)/C(=N\NC(=O)c2ccccc2)c2cc(Cl)ccc21`, the Activity in data set [5] stood at 6%; in data set [6], 9%.
As to `CCCCCCN1C(=O)/C(=N\NC(=O)c2ccc(OC)cc2)c2ccccc21`, the values for the Activity in data set [5] and in [6] were 56% and 81.7%, respectively. For the same molecule, the values for the maximal effect (Emax) in [3] and in data set [4] were 71% and 49.5%, respectively.
Consider `CCCCCCN1C(=O)/C(=N/NS(=O)(=O)c2ccccc2)c2ccccc21`, for which the Activity in [1] and in [2] was less than 40% throughout.
Consider `O=C(N/N=C1\C(=O)N(CCC2CCCCC2)c2ccccc21)Nc1ccccc1`, for which the Activity in data set [1] and in [2] was less than 40% throughout.
In the case of `CCCCCCN1C(=O)/C(=N/NC(=O)OC(C)(C)C)c2ccccc21`, the result in data set [7] and in data set [9] was inactive. Besides, the Activity was determined as 27% in data set [5] and 75% in data set [6]. The Emax in data set [11] was 23.4%.
Turning to `O=C(N/N=C1\C(=O)N(c2ccccc2)c2ccccc21)c1ccccc1`, the Activity worked out at 8% in data set [5] and 18% in data set [6].

These data come from ChEMBL document CHEMBL1156573, “Design and synthesis of a novel series of N-alkyl isatin acylhydrazone derivatives that act as selective cannabinoid receptor 2 agonists for the treatment of neuropathic pain” (J Med Chem, 2008).
